Reference: patent US8614327B2 (Vertex Pharmaceuticals Incorporated, priority 2004, dated 2013)

Molecular target: T1, ΔF508-CFTR (Homo sapiens, UniProt P13569, DEL508-508)
T1 construct: expressed in transfected cells
Assay: Membrane potential optical (FRET/VIPR) assay, identification of potentiator compounds
Format: cell-based
Conditions: Table 3, assay not given; for % Activity: relative efficacy
Outline: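 NIH3T3 mouse fibroblasts stably expressing ΔF508-CFTR, temperature-corrected 24 h at 27° C., read on VIPR by FRET between CC2-DMPE and DiSBAC2(3). Potentiators identified in a double-addition format, first adding chloride-free (gluconate) medium with or without compound.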

T1 sequence (P13569 with tags, fused parts or gaps DEL508-508): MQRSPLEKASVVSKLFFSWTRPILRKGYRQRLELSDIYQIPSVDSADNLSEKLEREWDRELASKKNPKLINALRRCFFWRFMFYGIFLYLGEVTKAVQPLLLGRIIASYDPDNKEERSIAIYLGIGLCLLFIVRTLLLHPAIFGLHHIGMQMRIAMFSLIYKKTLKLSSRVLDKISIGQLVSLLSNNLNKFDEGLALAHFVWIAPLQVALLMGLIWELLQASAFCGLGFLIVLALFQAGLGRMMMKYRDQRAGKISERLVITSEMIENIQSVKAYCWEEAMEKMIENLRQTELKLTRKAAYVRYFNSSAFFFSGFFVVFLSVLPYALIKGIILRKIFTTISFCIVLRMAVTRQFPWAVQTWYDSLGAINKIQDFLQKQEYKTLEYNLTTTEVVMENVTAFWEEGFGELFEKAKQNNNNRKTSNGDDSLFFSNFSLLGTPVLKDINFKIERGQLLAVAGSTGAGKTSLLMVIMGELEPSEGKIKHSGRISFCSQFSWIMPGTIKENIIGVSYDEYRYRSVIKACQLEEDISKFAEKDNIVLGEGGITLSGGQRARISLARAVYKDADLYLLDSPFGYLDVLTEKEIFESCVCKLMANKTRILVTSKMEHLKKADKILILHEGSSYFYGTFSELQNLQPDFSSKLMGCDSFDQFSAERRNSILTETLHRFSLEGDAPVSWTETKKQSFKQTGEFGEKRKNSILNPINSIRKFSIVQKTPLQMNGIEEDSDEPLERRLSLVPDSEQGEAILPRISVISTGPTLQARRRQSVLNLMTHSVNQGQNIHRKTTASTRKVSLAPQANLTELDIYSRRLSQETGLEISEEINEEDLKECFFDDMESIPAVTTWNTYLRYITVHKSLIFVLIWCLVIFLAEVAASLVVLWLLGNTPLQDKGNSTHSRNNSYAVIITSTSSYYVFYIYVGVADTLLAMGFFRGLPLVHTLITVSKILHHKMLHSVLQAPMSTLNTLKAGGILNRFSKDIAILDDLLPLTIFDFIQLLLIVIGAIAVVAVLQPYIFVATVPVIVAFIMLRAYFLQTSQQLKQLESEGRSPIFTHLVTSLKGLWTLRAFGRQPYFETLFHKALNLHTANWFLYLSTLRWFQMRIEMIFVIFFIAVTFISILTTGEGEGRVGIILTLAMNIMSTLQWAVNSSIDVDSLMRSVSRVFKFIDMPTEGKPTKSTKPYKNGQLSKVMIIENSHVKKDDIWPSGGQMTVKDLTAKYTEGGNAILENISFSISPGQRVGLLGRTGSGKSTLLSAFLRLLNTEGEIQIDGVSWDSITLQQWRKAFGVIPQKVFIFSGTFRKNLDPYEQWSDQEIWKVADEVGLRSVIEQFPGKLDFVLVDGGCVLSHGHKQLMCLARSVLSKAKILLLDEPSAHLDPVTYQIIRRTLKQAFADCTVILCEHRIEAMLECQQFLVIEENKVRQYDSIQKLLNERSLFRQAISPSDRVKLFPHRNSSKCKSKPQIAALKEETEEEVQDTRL

| SMILES | EC50 | % Activity |
| --- | --- | --- |
| CCOC(=O)C(C)(C)c1ccc(NC(=O)c2c[nH]c3ccccc3c2=O)cc1 [Compound 420, 2-methyl-2-[4-[(4-oxo-1H-quinolin-3-yl)carbonylamino]phenyl]-propanoic acid ethyl ester] | < 10 µM | ++ (between 25% to 100%) |
| COc1cc(NC(=O)c2c[nH]c3ccccc3c2=O)c(C(F)(F)F)cc1C(C)(C)C [Compound 421, N-[5-methoxy-4-tert-butyl-2-(trifluoromethyl)phenyl]-4-oxo-1H-quinoline-3-carboxamide] | < 10 µM | ++ (between 25% to 100%) |
| CCOCCc1c[nH]c2cc(NC(=O)c3c[nH]c4ccccc4c3=O)ccc12 [Compound 423, N-[3-(2-ethoxyethyl)-1H-indol-6-yl]-4-oxo-1H-quinoline-3-carboxamide] | < 10 µM | ++ (between 25% to 100%) |
| O=C(Nc1ccccc1-c1ccc(Cl)cc1)c1c[nH]c2ccccc2c1=O [Compound 424, N-[2-(4-chlorophenyl)phenyl]-4-oxo-1H-quinoline-3-carboxamide] | < 10 µM | ++ (between 25% to 100%) |
| CC(C)c1ccc(NC(=O)c2c[nH]c3ccccc3c2=O)cc1 [Compound 425, N-(4-isopropylphenyl)-4-oxo-1H-quinoline-3-carboxamide] |  | ++ (between 25% to 100%) |
| CC(C)(C)c1cc(Cl)c(O)cc1NC(=O)c1c[nH]c2ccccc2c1=O [Compound 426, N-(4-chloro-5-hydroxy-2-tert-butyl-phenyl)-4-oxo-1H-quinoline-3-carboxamide] | < 10 µM | ++ (between 25% to 100%) |
| CC(C)(C)OC(=O)N1CCc2c(cccc2NC(=O)c2c[nH]c3ccccc3c2=O)C1 [Compound 427, 5-[(4-oxo-1H-quinolin-3-yl)carbonylamino]-1,2,3,4-tetrahydroisoquinoline-2-carboxylic acid tert-butyl ester] | < 10 µM | ++ (between 25% to 100%) |
| CC(C)(C)c1ccc(NC(=O)c2c[nH]c3ccccc3c2=O)cc1O [Compound 428, N-(3-hydroxy-4-tert-butyl-phenyl)-4-oxo-1H-quinoline-3-carboxamide] | < 10 µM | ++ (between 25% to 100%) |
| Nc1cc(NC(=O)c2c[nH]c3ccccc3c2=O)cc(C(F)(F)F)c1 [Compound 429, N-[3-amino-5-(trifluoromethyl)phenyl]-4-oxo-1H-quinoline-3-carboxamide] | < 10 µM | ++ (between 25% to 100%) |
| Cc1cccc(C(C)C)c1NC(=O)c1c[nH]c2ccccc2c1=O [Compound 430, N-(2-isopropyl-6-methyl-phenyl)-4-oxo-1H-quinoline-3-carboxamide] | < 10 µM | ++ (between 25% to 100%) |
| Nc1cccc(NC(=O)c2c[nH]c3ccccc3c2=O)c1 [Compound 431, N-(3-aminophenyl)-4-oxo-1H-quinoline-3-carboxamide] | 10 to 25 µM | ++ (between 25% to 100%) |
| CC(C)c1ccc(-c2ccccc2NC(=O)c2c[nH]c3ccccc3c2=O)cc1 [Compound 432, N-[2-(4-isopropylphenyl)phenyl]-4-oxo-1H-quinoline-3-carboxamide] | < 10 µM | ++ (between 25% to 100%) |
| CC(C)(C)c1cc(C(C)(C)C)c(NC(=O)c2c[nH]c3ccccc3c2=O)cc1O [Compound 433, N-(5-hydroxy-2,4-ditert-butyl-phenyl)-4-oxo-1H-quinoline-3-carboxamide] | < 10 µM |  |
| Cc1ccc(C)c(NC(=O)c2c[nH]c3ccccc3c2=O)c1 [Compound 434, N-(2,5-dimethylphenyl)-4-oxo-1H-quinoline-3-carboxamide] | < 10 µM | ++ (between 25% to 100%) |
| O=C(Nc1cccnc1Oc1ccccc1F)c1c[nH]c2ccccc2c1=O [Compound 435, N-[2-(2-fluorophenoxy)-3-pyridyl]-4-oxo-1H-quinoline-3-carboxamide] | < 10 µM | ++ (between 25% to 100%) |
